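Dose response: 5 concentrations. Exposure: 48 h. Format: 96-well plates. Endpoint: linear interpolation; highest concentration if not reached. At the GI50, growth is halved.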 The source made the active and inactive calls. Cut-off read from the data, not from the text of the source: active = GI50 up to about 1.1 µM and inactive = higher.
How the values were obtained:
Experiment in all cases: NCI tumour cell line growth inhibition, 48 h
RPMI-8226 = system: RPMI-8226
SK-MEL-2 = system: SK-MEL-2
A498 = system: A498
Malme-3M = system: Malme-3M
CCRF-CEM = system: CCRF-CEM
MOLT-4 = system: MOLT-4
NCI-H226 = system: NCI-H226
NCI-H23 = system: NCI-H23
UACC-257 = system: UACC-257
SNB-19 = system: SNB-19
SF-268 = system: SF-268
HL-60 = system: HL-60
HCT-15 = system: HCT-15
SR = system: SR
SK-MEL-5 = system: SK-MEL-5
OVCAR-8 = system: OVCAR-8

Row | Structure (SMILES) | GI50 (RPMI-8226) | GI50 (SK-MEL-2) | GI50 (A498) | GI50 (Malme-3M) | GI50 (CCRF-CEM) | GI50 (MOLT-4) | GI50 (NCI-H226) | GI50 (NCI-H23) | GI50 (UACC-257) | GI50 (SNB-19) | GI50 (SF-268) | GI50 (HL-60) | GI50 (HCT-15) [µM] | GI50 (SR) | GI50 (SK-MEL-5) | GI50 (OVCAR-8)
1 | COc1ccc2oc(-c3ccncc3)cc(=O)c2c1 | > 100 µM (inactive) | > 100 µM (inactive) | > 100 µM (inactive) | 39.8 µM (inactive) | 81.1 µM (inactive) | 25.2 µM (inactive) | > 100 µM (inactive) | > 100 µM (inactive) | > 100 µM (inactive) | > 100 µM (inactive) | 67.6 µM (inactive) | > 100 µM (inactive) | > 100 | – | – | –
2 | O=C(NCCc1ccccc1)C1C(=O)C(=O)N(CCc2ccccc2)C1=O (centres undefined) | > 100 µM (inactive) | > 100 µM (inactive) | – | > 100 µM (inactive) | > 100 µM (inactive) | > 100 µM (inactive) | > 100 µM (inactive) | > 100 µM (inactive) | > 100 µM (inactive) | > 100 µM (inactive) | > 100 µM (inactive) | > 100 µM (inactive) | > 100 | > 100 µM (inactive) | – | –
3 | NNC(=S)N/N=C(\CCCC(=O)NCCc1ccccc1)CC(=O)c1ccccc1 | – | > 100 µM (inactive) | > 100 µM (inactive) | > 100 µM (inactive) | – | – | – | > 100 µM (inactive) | > 100 µM (inactive) | > 100 µM (inactive) | > 100 µM (inactive) | > 100 µM (inactive) | > 100 | > 100 µM (inactive) | > 100 µM (inactive) | > 100 µM (inactive)
4 | O=C(c1cccs1)N(C(=S)N1CCN(c2ccccc2)CC1)C1CCCCC1 | > 100 µM (inactive) | > 100 µM (inactive) | – | > 100 µM (inactive) | > 100 µM (inactive) | > 100 µM (inactive) | – | > 100 µM (inactive) | > 100 µM (inactive) | > 100 µM (inactive) | > 100 µM (inactive) | 22.1 µM (inactive) | > 100 | > 100 µM (inactive) | > 100 µM (inactive) | > 100 µM (inactive)
5 | O=C(O)CN1CCSc2ccccc2CN(CC(=O)O)CCSc2ccccc2C1 | > 100 µM (inactive) | > 100 µM (inactive) | > 100 µM (inactive) | > 100 µM (inactive) | > 100 µM (inactive) | – | – | > 100 µM (inactive) | > 100 µM (inactive) | > 100 µM (inactive) | > 100 µM (inactive) | > 100 µM (inactive) | > 100 | 4.61 µM (inactive) | > 100 µM (inactive) | > 100 µM (inactive)
6 | CC(=O)O[C@H]1CC[C@@]2(C)C(=CC[C@H]3C4=CC=C(C(C)=O)[C@@]4(C)CCC32)C1 (some centres undefined) | 15.3 µM (inactive) | – | 32.4 µM (inactive) | 31.9 µM (inactive) | 21.4 µM (inactive) | 11.4 µM (inactive) | 15 µM (inactive) | – | 24 µM (inactive) | 63.8 µM (inactive) | 32.4 µM (inactive) | 18 µM (inactive) | 29.8 | 19.6 µM (inactive) | 17.7 µM (inactive) | 21.8 µM (inactive)
7 | OCC(O)COc1ccc(F)cc1 (centres undefined) | – | > 100 µM (inactive) | > 100 µM (inactive) | > 100 µM (inactive) | > 100 µM (inactive) | > 100 µM (inactive) | > 100 µM (inactive) | > 100 µM (inactive) | > 100 µM (inactive) | > 100 µM (inactive) | > 100 µM (inactive) | > 100 µM (inactive) | > 100 | > 100 µM (inactive) | > 100 µM (inactive) | > 100 µM (inactive)
8 | C/C=C/C(=O)Oc1cccc2cccnc12 | 9.73 µM (inactive) | – | – | 1.45 µM (inactive) | 3.7 µM (inactive) | > 20.6 µM (inactive) | 25.1 µM (inactive) | 4.91 µM (inactive) | 4.62 µM (inactive) | 48.8 µM (inactive) | 3.2 µM (inactive) | 4.32 µM (inactive) | 7 | – | 14.5 µM (inactive) | 4.61 µM (inactive)
9 | COc1cccc(NC(=O)CC(=O)N2N=C(N(CCC#N)c3ccccc3C)CC2c2ccccc2)c1 (centres undefined) | > 100 µM (inactive) | > 100 µM (inactive) | – | > 100 µM (inactive) | > 100 µM (inactive) | > 100 µM (inactive) | > 100 µM (inactive) | > 100 µM (inactive) | > 100 µM (inactive) | > 100 µM (inactive) | > 100 µM (inactive) | > 100 µM (inactive) | > 100 | > 100 µM (inactive) | > 100 µM (inactive) | > 100 µM (inactive)
10 | COc1ccc2c(c1O)C(=O)C(CCC(=O)O)CC2 (centres undefined) | > 100 µM (inactive) | – | > 100 µM (inactive) | – | > 100 µM (inactive) | > 100 µM (inactive) | – | > 100 µM (inactive) | > 100 µM (inactive) | > 100 µM (inactive) | – | > 100 µM (inactive) | > 100 | – | > 100 µM (inactive) | > 100 µM (inactive)
